Earlier results as cited in patent US8431154B2, “Oral dosage form containing a PDE 4 inhibitor as an active ingredient and polyvinylpyrrolidone as excipient” (Takeda GmbH, priority 2002, dated 2013).

Details: as referred to for U.S. Pat. No. 5,286,494

solubility: solubility is slight
SMILES: COc1ccc(C2CNC(=O)C2)cc1OC1CCCC1 (stereo not shown) [Rolipram]
